Tests used:
DNFB-induced ear edema = test: Inhibitory effect on mouse ear contact dermatitis (DNFB-induced ear edema); assay type: in vivo, ICR strain mice; details: for Dose producing 50% inhibition of ear edema: DNFB-induced ear edema, mice, p.o.; for DNFB-induced edema vs control group: ICR mice, Student's t-test
Description: (§1) ICR strain mice at 7 weeks of age were purchased from CLEA Japan and used for experiments after preconditioning for 1 week. The yellow powder obtained in Example 1 [compound (1)] was suspended in 0.5% sodium carboxymethylcellulose/0.01N hydrochloric acid to prepare sample formulations at three concentrations corresponding to doses of 0.2, 1.0 and 5.0 μg/kg in a dose volume of 10 ml/kg. […] in six mice per group was established in 5 days by subcutaneous injection of 100 μl of a solution of 1% 2,4-dinitrofluorobenzene (DNFB) in ethanol on the back. On day 6, a solution of 1% DNFB in olive oil was applied on the right ear to induce ear contact dermatitis. After 24 hours, both ears were punched out in a diameter of 8 mm and weighed. Compound (1) was continuously orally administered for 7 days from the day before the primary challenge until the day on which edema was induced. A control group was treated with 0.5% sodium carboxymethylcellulose/0.01N hydrochloric acid. The experimental results were expressed as the average percentage of edema on the right in relation to left ears with standard deviation using Student's t-test for evaluating the significance between groups.
as §1, with “(2)]” for “(1)]”, “1.0, 10” for “0.2, 1.0”, “100” for “5.0”, “(2)” for “(1)”
The same procedures as in Experimental examples 1 and 2 were used to compare the inhibitory effects of a corticosteroid and several flavonoids (FIG. 3) on DNFB-induced ear edema formation with those of compound (1) and compound (2). The experimental results were expressed as the dose producing a 50% inhibition of DNFB-induced ear edema.

peritoneal mast cells = test: Inhibitory effect on histamine release from peritoneal mast cells (Compound 48/80); assay type: cell-based, Wistar strain rats; details: Mast cell, rat peritoneal mast cells
Description: Wistar strain rats at 7 weeks of age were purchased from CLEA Japan and used for experiments after preconditioning for 1 week. After Wistar strain rats were decapitated under ether anesthesia, Tyrode solution was intraperitoneally injected. Mast cells were routinely isolated and suspended at […] in Tyrode solution containing 0.1% bovine serum albumin (BSA) to prepare a mast cell suspension. The mast cell suspension was incubated with compound (1) or compound (2) dissolved in 50% methanol at 37° C. for 5 minutes. Then, the suspension was further incubated with Compound 48/80 at 37° C. for 10 minutes and cooled on ice and then centrifuged. Then, the free histamine content in the resulting supernatant was measured on a high-speed liquid chromatograph by the post-column method using ortho-phthalaldehyde (OPA) according to the method of Onda et al. [J. Med. Sci., 27, 93-97(1978)]. The experimental results were expressed as the percentage of histamine release inhibited by the treatment with the samples as compared with the treatment with the solvent alone.

With `O=c1cc(-c2ccc(O)cc2)oc2cc(O)cc(O)c12` [Apigenin] the “Dose producing 50% inhibition of ear edema” value (from here on “Dose producing 50% inhibition”) (DNFB-induced ear edema) was 247 mg/kg p.o.

For `O=c1cc(-c2ccc(O)cc2)oc2cc3c(c(O)c12)[C@@H]1O[C@H](CO)[C@@H](O)[C@H](O)[C@@H]1O3` [Compound (1)], the inhibition at 5 µg/mL (peritoneal mast cells; concentration 5.0 μg/ml) was 62.3%, the “DNFB-induced edema vs control group” value (DNFB-induced ear edema; 1.0 μg/kg orally for 7 days) was “significantly inhibited” and the “DNFB-induced edema vs control group” value (DNFB-induced ear edema; 5.0 μg/kg orally for 7 days) was “significantly inhibited”. For the same compound, the “Dose producing 50% inhibition” value (DNFB-induced ear edema) was 0.05 mg/kg p.o.

For `O=c1cc(-c2ccc(O)cc2)oc2c3c(cc(O)c12)O[C@H]1[C@@H](O)[C@H](O)[C@@H](CO)O[C@@H]31` [Compound (2)], the inhibition at 50 µg/mL (peritoneal mast cells; concentration 50.0 μg/ml) was 51.2%, the “DNFB-induced edema vs control group” value (DNFB-induced ear edema; 100 μg/kg orally for 7 days) was “significantly inhibited” and the “Dose producing 50% inhibition” value (DNFB-induced ear edema) was 0.17 mg/kg p.o.

For `C[C@@H]1C[C@H]2[C@@H]3CCC4=CC(=O)C=C[C@]4(C)[C@@]3(F)[C@@H](O)C[C@]2(C)[C@@]1(O)C(=O)CO` [Dexamethasone], the “Dose producing 50% inhibition” value (DNFB-induced ear edema) was 1.5 mg/kg p.o.

With `O=c1c(O)c(-c2ccc(O)c(O)c2)oc2cc(O)cc(O)c12` [Quercetin] the “Dose producing 50% inhibition” value (DNFB-induced ear edema) was 265 mg/kg p.o.

`C[C@@H]1O[C@@H](O[C@@H]2[C@@H](O)[C@H](O)[C@@H](CO)O[C@H]2c2c(O)cc(O)c3c(=O)cc(-c4ccc(O)cc4)oc23)[C@H](O)[C@H](O)[C@H]1O` [Rhamnosyl vitexin] was tested, and the “Dose producing 50% inhibition” value (DNFB-induced ear edema) was 146 mg/kg p.o.

`C[C@@H]1O[C@@H](OC[C@H]2O[C@@H](Oc3c(-c4ccc(O)c(O)c4)oc4cc(O)cc(O)c4c3=O)[C@H](O)[C@@H](O)[C@@H]2O)[C@H](O)[C@H](O)[C@H]1O` [Rutin] was tested, and the “Dose producing 50% inhibition” value (DNFB-induced ear edema) was 123 mg/kg p.o.

With `O=c1cc(-c2ccc(O)cc2)oc2c([C@@H]3O[C@H](CO)[C@@H](O)[C@H](O)[C@H]3O)c(O)cc(O)c12` [Vitexin] the “Dose producing 50% inhibition” value (DNFB-induced ear edema) was 103 mg/kg p.o.

Source: patent publication US7622450B2, “Flavone C-glycoside derivatives and compositions containing the derivatives” (Suntory Holdings Limited, priority 2002, dated 2009)
